From US11123340B2, “Small-molecule UT-A-selective urea transport inhibitors” (The Regents of the University of California, priority 2014, dated 2021)
In brackets after ≈: the same amount, converted by molar mass. Where two headings read alike, the source gives them in different places.

Experiments:
[1] = target: T1, rat UT-A1 (Rattus norvegicus, UniProt Q62668); test: In vitro functional studies of UT-A1 inhibition (reversibility, urea competition, kinetics); assay type: cell-based; conditions: for Mechanism of inhibition of urea transport: urea concentration-dependence of apparent IC50
T1 construct: expressed in transfected cells; host or cells: MDCK cells stably co-expressing rat UT-A1, human AQP1 and YFP-H148Q/V163S
T1 sequence (Q62668 1-929): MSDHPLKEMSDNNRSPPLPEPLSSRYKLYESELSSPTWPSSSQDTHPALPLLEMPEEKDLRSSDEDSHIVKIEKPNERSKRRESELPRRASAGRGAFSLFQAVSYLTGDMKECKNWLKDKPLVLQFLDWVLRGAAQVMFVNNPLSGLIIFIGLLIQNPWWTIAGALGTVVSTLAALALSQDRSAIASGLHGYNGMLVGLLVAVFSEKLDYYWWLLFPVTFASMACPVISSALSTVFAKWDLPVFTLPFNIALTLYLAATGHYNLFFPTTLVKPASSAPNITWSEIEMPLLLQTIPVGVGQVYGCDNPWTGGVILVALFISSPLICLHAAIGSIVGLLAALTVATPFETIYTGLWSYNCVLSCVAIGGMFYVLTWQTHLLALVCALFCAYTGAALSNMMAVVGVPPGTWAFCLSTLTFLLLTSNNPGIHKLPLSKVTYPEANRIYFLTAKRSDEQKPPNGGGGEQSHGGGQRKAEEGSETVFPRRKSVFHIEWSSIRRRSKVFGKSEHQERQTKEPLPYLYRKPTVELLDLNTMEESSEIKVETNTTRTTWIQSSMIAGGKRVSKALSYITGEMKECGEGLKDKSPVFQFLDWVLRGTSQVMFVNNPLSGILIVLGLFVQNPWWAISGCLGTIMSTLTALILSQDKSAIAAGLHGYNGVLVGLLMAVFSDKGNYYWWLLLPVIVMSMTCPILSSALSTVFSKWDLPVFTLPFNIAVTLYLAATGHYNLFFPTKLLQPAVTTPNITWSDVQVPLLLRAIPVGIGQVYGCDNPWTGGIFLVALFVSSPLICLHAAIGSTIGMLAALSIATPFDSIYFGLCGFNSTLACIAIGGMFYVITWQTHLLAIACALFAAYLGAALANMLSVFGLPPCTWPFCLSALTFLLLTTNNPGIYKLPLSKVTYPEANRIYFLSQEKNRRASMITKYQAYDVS
Protocol: Reversibility of UT-A1 inhibition was tested by pre-incubating MDCK cells expressing rat UT-A1, YFP-H148Q/V163S and AQP1 with inhibitors for 15 min (at 3 μM) and then washing the cells with PBS prior to assay. The urea concentration-dependence of UT-A1 inhibition was studied from inhibitor concentration-response data using different of urea gradients at zero initial intracellular urea concentration, or after preincubation of cells with different concentrations of urea for 10 min prior to a 1,600 mM urea gradient. The kinetics of UT-A1 inhibition was measured by adding inhibitors (3 μM) at different time points (0 to 10 min) prior to assay.
Inhibitor reversibility was studied by incubation of the UT-A1-expressing cells with compounds for 15 min and washing, followed by assay of UT-A1 inhibition. UT-A1 urea transport after inhibitor washout was the same as before inhibitor addition for all compounds (FIG. 3A), indicating full reversibility. Inhibitor competition with urea, as might occur by steric hindrance if the inhibitor and urea occupied physically overlapping sites on the UT-A1 protein, was studied from the urea concentration-dependence of apparent inhibitor IC50. Studies were done with zero urea inside cells initially and different urea concentrations outside, and with different urea concentrations inside cells initially and the same inward urea gradient.
To further evaluate the potential site of inhibitor action, the kinetics of UT-A1 inhibition was measured by assay of UT-A1 inhibition at different times after compound addition. […] To assess inhibitor membrane permeability transport of UTAinh-E02 and UTAinh-F11 across MDCK monolayers grown on porous filters by LC/MS was measured. Transport of UTAinh-F11 was much faster than that of UTAinh-E02 (FIG. 3C, right lower panel), with computed transepithelial permeability coefficients of […] and 1.1×10^−5 cm/s, respectively. […]

[2] = target: T2, UT-A1 (Rattus norvegicus, UniProt Q62668); test: Transepithelial urea transport in UT-A1-expressing MDCK cells on porous filters; assay type: cell-based; conditions: 3 μM inhibitor, forskolin 10 μM
T2 construct: expressed in transfected cells; host or cells: MDCK cells
T2 sequence (Q62668 1-929): T1 sequence (Q62668 1-929)
Protocol: (§1) UT-A1 expressing MDCK cells were grown on 12-mm diameter collagen-coated Transwell inserts (0.4 μm pore size; Costar, Costar, N.Y.) to form tight monolayers (resistance>500 Ωcm^2), as described (see, e.g., Levin et al. (2007) FASEB J. 21, 551-563). Urea flux in the basolateral-to-apical direction was measured in response to a 15 mM urea gradient in which PBS containing forskolin (10 μM), with or without UT-A1 inhibitor and 0.7 mM phloretin, was added to both the apical-facing (0.2 mL) and basal-facing (2 mL) surfaces. After 30 min the basal-facing solution was replaced by PBS containing test compound+15 mM urea. Apical fluid samples (5 μL) were collected at specified times for enzymatic assay of urea (QUANTICHROME Urea Assay Kit; BioAssay Systems, Hayward, Calif.). To measure inhibitor permeability across MDCK cell layers, compounds (20 μM) were added on the basal-facing surface and fluid samples (20 μL) from the apical-facing surface were collected at different time points and analyzed by LC/MS.
Transepithelial urea transport from the basolateral to the apical solution was measured by enzymatic assay of urea in the apical solution following urea addition to the basal-facing solution.

[3] = system: MDCK cell monolayers; test: Inhibitor permeability across MDCK cell monolayers (LC/MS); assay type: in vitro ADME, canine; conditions: computed from surface-to-volume considerations
Protocol: as §1
To further evaluate the potential site of inhibitor action, the kinetics of UT-A1 inhibition was measured by assay of UT-A1 inhibition at different times after compound addition. […] To assess inhibitor membrane permeability transport of UTAinh-E02 and UTAinh-F11 across MDCK monolayers grown on porous filters by LC/MS was measured. Transport of UTAinh-F11 was much faster than that of UTAinh-E02 (FIG. 3C, right lower panel), with computed transepithelial permeability coefficients of […] and 1.1×10^−5 cm/s, respectively. From surface-to-volume considerations, the equilibration times were computed of UTAinh-E02 and UTAinh-F11 to be 250 and 14 s, respectively, in MDCK cells, which are consistent with intracellular sites of action of both inhibitors.

[4] = Solubility; assay type: physicochemical
Protocol: Several vehicles and administration routes were tested in order to give predicted therapeutic inhibitor concentrations in blood and urine. […] Because of the alkaline pH of the administered compounds the vehicle control for UTAinh-F11 was 20% dimethylacetamide and 1.2 mg/mL NaHCO3 in saline to give identical pH. […] Urine levels of UTAinh-F11 were >3 μM over 6 h.
Compound toxicity was evaluated by compound incubation for 24 h with MDCK cell cultures followed by Alamar blue assay. […] To assess potential ion channel off-target effects, short-circuit current was measured in MDCK cells in response to cAMP (forskolin) and calcium (ATP) agonists (FIG. 5C, right), which depends on the actions of multiple anion (CFTR, calcium-activated chloride channels) and cation (K^+, Na^+) channels.

Row | Kinetics of UT-A1 inhibition ([1]; 3 μM inhibitor, different times after addition) | Mechanism of inhibition of urea transport [1] | inhibition of transepithelial urea transport [2] | equilibration time in MDCK cells [3] | solubility ([4]; read-out: solubility limit) | SMILES | solubility ([4]; in words, vehicle selection)
1 | occurred over minutes | non-competitive | ~50% | 250 s | ~25 µM (≈ 8.34 µg/mL) | CC(=O)Nc1ccc(-c2csc(-c3c[nH]c4ccccc34)n2)cc1 [UTA1inh-E02, N-(4-(2-(1H-indol-3-yl)thiazol-4-yl)phenyl)acetamide] | limited solubility
2 | – | non-competitive | ~50% | 14 s | ~25 µM (≈ 10.8 µg/mL) | COc1ccc(C)cc1S(=O)(=O)Nc1ccc(Cl)c(N2CCCS2(=O)=O)c1 [UTA1inh-F11, N-[4-Chloro-3-(1,1-dioxido-1,2-thiazolidin-2-yl)phenyl]-2-methoxy-5-methylbenzene-sulfonamide] | dissolved well in 20% dimethylacetamide, 0.6 mg/mL NaOH in saline
